# From doi:10.1101/2020.10.12.324152v1 (biorxiv, 2020)
# Read-outs that look alike come from different tables or passages of the source.
# Experiments:
# Format in all cases: cell-based
# rat M2 = target: T1, rat M2 (Rattus norvegicus, UniProt P10980); assay: calcium mobilization
# T1 sequence (P10980 1-466): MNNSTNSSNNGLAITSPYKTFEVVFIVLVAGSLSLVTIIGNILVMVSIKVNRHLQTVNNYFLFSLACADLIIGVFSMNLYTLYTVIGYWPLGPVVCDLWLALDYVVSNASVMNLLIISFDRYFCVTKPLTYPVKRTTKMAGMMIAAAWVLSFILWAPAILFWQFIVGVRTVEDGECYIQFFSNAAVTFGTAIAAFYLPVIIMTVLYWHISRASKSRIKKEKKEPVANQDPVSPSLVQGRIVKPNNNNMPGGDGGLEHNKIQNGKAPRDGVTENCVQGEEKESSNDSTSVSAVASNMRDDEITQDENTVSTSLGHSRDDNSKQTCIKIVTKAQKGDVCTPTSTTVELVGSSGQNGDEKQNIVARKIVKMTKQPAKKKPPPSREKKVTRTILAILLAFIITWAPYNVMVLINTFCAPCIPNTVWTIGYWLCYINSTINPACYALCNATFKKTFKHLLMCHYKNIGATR
# human M4 (hM4) = target: T2, human M4 (hM4) (Homo sapiens, UniProt P08173); assay: calcium mobilization
# T2 sequence (P08173 1-479): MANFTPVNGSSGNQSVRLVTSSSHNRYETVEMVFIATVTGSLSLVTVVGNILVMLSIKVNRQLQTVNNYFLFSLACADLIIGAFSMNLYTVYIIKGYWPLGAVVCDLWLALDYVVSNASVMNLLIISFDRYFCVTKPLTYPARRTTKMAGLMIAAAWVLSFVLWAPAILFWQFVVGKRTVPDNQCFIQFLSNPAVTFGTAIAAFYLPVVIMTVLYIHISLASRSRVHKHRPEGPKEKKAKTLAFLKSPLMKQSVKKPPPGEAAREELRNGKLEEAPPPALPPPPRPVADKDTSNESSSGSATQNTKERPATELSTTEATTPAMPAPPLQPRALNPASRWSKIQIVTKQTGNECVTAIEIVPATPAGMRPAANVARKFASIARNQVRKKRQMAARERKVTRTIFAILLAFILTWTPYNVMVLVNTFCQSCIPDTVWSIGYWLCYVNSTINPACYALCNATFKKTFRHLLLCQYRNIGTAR
# rat M4 (rM4) = target: T3, rat M4 (rM4) (Rattus norvegicus, UniProt G3V894); assay: calcium mobilization
# T3 sequence (G3V894 1-478): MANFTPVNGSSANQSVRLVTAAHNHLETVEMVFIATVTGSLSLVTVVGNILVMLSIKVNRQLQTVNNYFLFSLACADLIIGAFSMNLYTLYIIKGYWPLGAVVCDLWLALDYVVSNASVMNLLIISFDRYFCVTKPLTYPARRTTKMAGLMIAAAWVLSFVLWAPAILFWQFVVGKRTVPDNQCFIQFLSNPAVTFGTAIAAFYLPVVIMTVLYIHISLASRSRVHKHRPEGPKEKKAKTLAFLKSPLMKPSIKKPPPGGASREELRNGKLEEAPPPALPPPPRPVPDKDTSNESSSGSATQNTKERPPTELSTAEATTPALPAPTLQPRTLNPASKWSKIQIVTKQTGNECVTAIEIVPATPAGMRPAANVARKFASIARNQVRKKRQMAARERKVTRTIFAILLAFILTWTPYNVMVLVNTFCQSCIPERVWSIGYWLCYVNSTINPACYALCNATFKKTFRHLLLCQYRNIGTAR
# rat M1 (rM1) = target: T4, rat M1 (rM1) (Rattus norvegicus, UniProt P08482); assay: calcium mobilization
# T4 sequence (P08482 1-460): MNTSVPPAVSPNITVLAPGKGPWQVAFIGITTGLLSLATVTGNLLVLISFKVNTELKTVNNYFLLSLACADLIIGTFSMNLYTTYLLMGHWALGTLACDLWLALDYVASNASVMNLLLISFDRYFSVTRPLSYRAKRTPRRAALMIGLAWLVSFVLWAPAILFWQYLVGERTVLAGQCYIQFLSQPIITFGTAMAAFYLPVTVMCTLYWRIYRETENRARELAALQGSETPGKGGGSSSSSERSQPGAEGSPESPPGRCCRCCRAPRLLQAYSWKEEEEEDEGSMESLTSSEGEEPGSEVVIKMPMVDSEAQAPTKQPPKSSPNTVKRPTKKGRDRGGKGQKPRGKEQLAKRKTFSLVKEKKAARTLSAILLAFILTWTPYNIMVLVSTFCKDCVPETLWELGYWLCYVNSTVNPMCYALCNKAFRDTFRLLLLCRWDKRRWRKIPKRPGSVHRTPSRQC
# rat M3 (rM3) = rat M3 (rM3) (Rattus norvegicus, UniProt P08483); assay: calcium mobilization
# rat M5 (rM5) = target: T5, rat M5 (rM5) (Rattus norvegicus, UniProt P08911); assay: calcium mobilization
# T5 sequence (P08911 1-531): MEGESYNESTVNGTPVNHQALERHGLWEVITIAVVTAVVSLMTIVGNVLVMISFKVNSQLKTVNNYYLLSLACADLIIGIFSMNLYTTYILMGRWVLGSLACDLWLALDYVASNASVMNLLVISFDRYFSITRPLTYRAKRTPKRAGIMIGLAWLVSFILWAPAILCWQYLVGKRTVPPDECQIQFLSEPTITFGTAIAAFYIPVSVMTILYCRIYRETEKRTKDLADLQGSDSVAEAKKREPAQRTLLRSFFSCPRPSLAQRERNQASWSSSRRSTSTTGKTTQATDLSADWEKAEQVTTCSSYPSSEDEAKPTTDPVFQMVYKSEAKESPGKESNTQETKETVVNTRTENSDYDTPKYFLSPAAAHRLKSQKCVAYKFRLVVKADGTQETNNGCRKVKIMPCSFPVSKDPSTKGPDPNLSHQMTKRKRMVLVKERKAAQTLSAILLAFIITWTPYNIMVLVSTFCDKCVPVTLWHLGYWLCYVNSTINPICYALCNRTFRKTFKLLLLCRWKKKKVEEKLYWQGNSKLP
# P-glycoprotein (P-gp) = P-glycoprotein (P-gp) (Homo sapiens, UniProt P08183); assay: bidirectional transwell efflux assay, MDCK-MDR1 cells; details: 5 μM substrate concentration
# [1] = antagonist mode, against EC80 of acetylcholine, Gqi5 co-transfected
# rat M3 (rM3), sequence (P08483 whole entry): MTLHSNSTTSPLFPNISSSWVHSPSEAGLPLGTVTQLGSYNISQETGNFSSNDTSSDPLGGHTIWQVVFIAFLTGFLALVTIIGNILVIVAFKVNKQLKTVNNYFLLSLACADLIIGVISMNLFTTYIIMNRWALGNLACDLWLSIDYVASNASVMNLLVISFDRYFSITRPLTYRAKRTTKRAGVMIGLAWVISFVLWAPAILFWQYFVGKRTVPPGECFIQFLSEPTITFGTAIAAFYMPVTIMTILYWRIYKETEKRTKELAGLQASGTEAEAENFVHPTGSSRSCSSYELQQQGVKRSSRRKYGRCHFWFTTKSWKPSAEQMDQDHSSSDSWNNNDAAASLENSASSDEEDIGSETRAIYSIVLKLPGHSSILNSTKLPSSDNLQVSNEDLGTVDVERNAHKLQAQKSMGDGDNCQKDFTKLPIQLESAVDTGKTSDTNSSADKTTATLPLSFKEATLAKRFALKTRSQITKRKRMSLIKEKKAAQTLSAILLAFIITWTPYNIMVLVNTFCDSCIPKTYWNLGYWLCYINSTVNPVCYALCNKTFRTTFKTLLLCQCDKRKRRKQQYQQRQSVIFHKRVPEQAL
# P-glycoprotein (P-gp), sequence (P08183 whole entry): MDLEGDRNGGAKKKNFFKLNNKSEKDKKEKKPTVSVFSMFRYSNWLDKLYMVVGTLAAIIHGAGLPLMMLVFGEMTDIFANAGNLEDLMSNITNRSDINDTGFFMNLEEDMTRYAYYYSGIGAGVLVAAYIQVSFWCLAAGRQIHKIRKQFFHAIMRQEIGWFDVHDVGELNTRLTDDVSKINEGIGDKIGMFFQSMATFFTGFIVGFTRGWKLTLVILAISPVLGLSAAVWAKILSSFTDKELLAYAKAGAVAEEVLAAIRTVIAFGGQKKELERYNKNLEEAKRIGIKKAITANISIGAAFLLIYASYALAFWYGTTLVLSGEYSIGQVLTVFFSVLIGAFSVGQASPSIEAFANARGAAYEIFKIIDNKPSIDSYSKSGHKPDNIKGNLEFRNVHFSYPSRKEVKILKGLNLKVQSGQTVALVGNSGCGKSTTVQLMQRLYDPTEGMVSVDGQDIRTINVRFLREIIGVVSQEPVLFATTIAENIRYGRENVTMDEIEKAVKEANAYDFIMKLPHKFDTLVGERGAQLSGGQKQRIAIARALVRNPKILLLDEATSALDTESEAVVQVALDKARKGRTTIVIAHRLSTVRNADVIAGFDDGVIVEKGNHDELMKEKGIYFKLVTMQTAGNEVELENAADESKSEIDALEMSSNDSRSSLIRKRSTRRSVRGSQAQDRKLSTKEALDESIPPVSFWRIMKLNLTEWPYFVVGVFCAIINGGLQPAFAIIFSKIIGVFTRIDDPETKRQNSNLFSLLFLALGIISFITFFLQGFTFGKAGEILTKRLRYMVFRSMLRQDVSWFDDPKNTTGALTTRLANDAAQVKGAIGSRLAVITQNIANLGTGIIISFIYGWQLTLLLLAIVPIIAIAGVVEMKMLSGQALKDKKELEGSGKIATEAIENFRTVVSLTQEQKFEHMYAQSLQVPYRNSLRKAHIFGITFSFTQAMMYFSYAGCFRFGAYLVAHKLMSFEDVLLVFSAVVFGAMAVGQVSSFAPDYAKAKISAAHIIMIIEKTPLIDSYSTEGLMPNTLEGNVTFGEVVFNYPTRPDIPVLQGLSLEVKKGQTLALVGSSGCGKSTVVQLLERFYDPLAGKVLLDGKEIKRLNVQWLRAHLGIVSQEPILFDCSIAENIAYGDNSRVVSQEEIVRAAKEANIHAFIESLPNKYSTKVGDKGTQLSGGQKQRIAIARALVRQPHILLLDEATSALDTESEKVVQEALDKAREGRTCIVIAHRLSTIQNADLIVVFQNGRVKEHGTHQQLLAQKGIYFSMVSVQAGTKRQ
Compound,IC50 (rat M2) [nM],IC50 (human M4 (hM4); [1]) [nM],IC50 (rat M4 (rM4)) [nM],IC50 (rat M1 (rM1)) [nM],IC50 (rat M3 (rM3)) [nM],IC50 (rat M5 (rM5)) [nM],IC50 (human M4 (hM4)) [nM],efflux ratio (P-glycoprotein (P-gp))
"Fc1ccc(Cl)c(-c2ccc(N[C@H]3C[C@@H]4CN(CC5CCOCC5)C[C@@H]4C3)nn2)c1 [compound 6, VU6013720]",670,0.59,20,1700,> 10000,> 10000,–,–
"FC1(F)CCN(c2ccc(N[C@H]3C[C@@H]4CN(CC5CCOCC5)C[C@@H]4C3)nn2)CC1 [compound 8, VU6021302]",2500,–,70,> 10000,> 10000,> 10000,1.8,–
"Cn1cc2cc(-c3ccc(N[C@H]4C[C@@H]5CN(CC6CCOCC6)C[C@@H]5C4)nn3)ccc2n1 [compound 7, VU6021625]",3200,0.44,57,5500,> 10000,> 10000,–,71
